Results from patent US20070128217A1 (priority 2003, published 2007).

Key:
[1] = tested on: antibodies in sera from SARS patients (sera 1a, 1b, 2, 6, 37, 62, London, SARS-yellow, SARS-green); format: binding, human; parameters: Binding of serum 6 to linear peptides of protein X1 of SARS-CoV Urbani / Binding of serum 37 to linear peptides of protein X1 of SARS-CoV Urbani / Binding of serum 6 to looped/cyclic peptide (PEPSCAN-ELISA) / Binding of serum 37 to looped/cyclic peptide (PEPSCAN-ELISA) / Binding of serum 37 to looped/cyclic peptides of protein X1 of SARS-CoV Urbani / Binding of serum 6 to linear peptides of protein X2 / Binding of serum 37 to linear peptides of protein X2 / Binding of serum 37 to looped/cyclic peptides of protein X2 of SARS-CoV Urbani / Binding of serum 6 to linear peptides of protein M of SARS-CoV Urbani / Binding of serum 37 to linear peptides of protein M of SARS-CoV Urbani / Binding of serum 6 to looped/cyclic peptides of protein M of SARS-CoV Urbani / Binding of serum 37 to looped/cyclic peptides of protein M of SARS-CoV Urbani / Binding of serum 6 to linear peptides of protein X3 of SARS-CoV Urbani / Binding of serum 37 to linear peptides of protein X3 of SARS-CoV Urbani / Binding of serum 37 to looped/cyclic peptides of protein X3 of SARS-CoV Urbani / Binding of serum 6 to linear peptides of protein X4 of SARS-CoV Urbani / Binding of serum 37 to linear peptides of protein X4 of SARS-CoV Urbani / Binding of serum 37 to looped/cyclic peptides of protein X4 of SARS-CoV Urbani / Binding of serum 6 to linear peptides of protein X5 of SARS-CoV Urbani / Binding of serum 37 to linear peptides of protein X5 of SARS-CoV Urbani / Binding of serum 37 to looped/cyclic peptides of protein X5 of SARS-CoV Urbani / Binding of serum 6 to linear peptides of protein N of SARS-CoV Urbani / Binding of serum 37 to linear peptides of protein N of SARS-CoV Urbani / Binding of serum 6 to linear peptide (PEPSCAN-ELISA) / Binding of serum 1a to looped/cyclic peptides of protein N of SARS-CoV Urbani / Binding of serum 1b to looped/cyclic peptides of protein N of SARS-CoV Urbani / Binding of serum 2 to looped/cyclic peptides of protein N of SARS-CoV Urbani / Binding of serum 6 to looped/cyclic peptides of protein N of SARS-CoV Urbani / Binding of serum 37 to looped/cyclic peptides of protein N of SARS-CoV Urbani / Binding of serum 62 to looped/cyclic peptides of protein N of SARS-CoV Urbani / Binding of serum London to looped/cyclic peptides of protein N of SARS-CoV Urbani / Binding of serum SARS-green to looped/cyclic peptides of protein N of SARS-CoV Urbani: unit not given here
[2] = tested on: control sera (pooled serum of ten healthy LUMC hospital workers; commercial negative donor pooled serum from the Dutch bloodbank); format: binding, human; parameters: Binding of Control serum LUMC to linear peptides / Binding of Control serum Blood-bank to linear peptides / Binding of Control serum LUMC to looped peptides / Binding of Control Serum Blood-Bank to Looped peptides / Binding of Control serum LUMC to linear peptides of the protein M of SARS-CoV Urbani / Binding of Control serum Blood-bank to linear peptides of the protein M of SARS-CoV Urbani / Binding of Control serum LUMC to looped peptides of the protein M of SARS-CoV Urbani / Binding of Control Serum Blood-Bank to Looped peptides of the protein M of SARS-CoV Urbani: unit not given here
[3] = tested on: rabbit serum obtained by immunizing a rabbit with the SARS-CoV strain Frankfurt 1; format: binding; parameters: Binding of a rabbit serum to linear peptides / Binding of a rabbit serum to looped peptides / Rabbit serum linear peptides / Rabbit serum looped peptides / Binding of a rabbit serum to linear peptides of protein N of SARS-CoV Urbani (Rabbit serum linear peptides) / Binding of a rabbit serum to looped/cyclic peptides of protein N of SARS-CoV Urbani (Rabbit serum looped peptides): unit not given here

RNRFLYIIKLVFLWL
0.6: Binding of serum 1a to linear peptides of protein M of SARS-CoV Urbani [1] | Binding of Control serum Blood-bank to linear peptides of the protein M of SARS-CoV Urbani [2]
0.8: Binding of Control serum LUMC to looped peptides of the protein M of SARS-CoV Urbani [2]
0.3: Binding of serum London to linear peptides of protein M of SARS-CoV Urbani [1] | Binding of serum SARS-yellow to linear peptides of protein M of SARS-CoV Urbani [1]
recognized in looped/cyclic form: Recognition of the peptide by sera of SARS-CoV infected individuals, and form (linear, looped/cyclic) in which it is recognized [1]
0.5: Binding of serum 1b to linear peptides of protein M of SARS-CoV Urbani [1] | Binding of serum 6 to linear peptides of protein M of SARS-CoV Urbani [1] | Binding of serum 62 to linear peptides of protein M of SARS-CoV Urbani [1] | Rabbit serum looped peptides [3]
0.7: Binding of Control Serum Blood-Bank to Looped peptides of the protein M of SARS-CoV Urbani [2] | Binding of Control serum LUMC to linear peptides of the protein M of SARS-CoV Urbani [2]
0.4: Binding of serum 2 to linear peptides of protein M of SARS-CoV Urbani [1] | Binding of serum 37 to linear peptides of protein M of SARS-CoV Urbani [1] | Binding of serum SARS-green to linear peptides of protein M of SARS-CoV Urbani [1] | Rabbit serum linear peptides [3]

RSMWSFNPETNILLN
0.1: Binding of serum SARS-yellow to linear peptides of protein M of SARS-CoV Urbani [1]
0.5: Binding of Control serum LUMC to linear peptides of the protein M of SARS-CoV Urbani [2]
0.6: Binding of serum 1b to linear peptides of protein M of SARS-CoV Urbani [1] | Binding of serum 2 to linear peptides of protein M of SARS-CoV Urbani [1]
0.7: Binding of serum 6 to looped/cyclic peptides of protein M of SARS-CoV Urbani [1] | Binding of serum 62 to linear peptides of protein M of SARS-CoV Urbani [1] | Binding of serum SARS-yellow to looped/cyclic peptides of protein M of SARS-CoV Urbani [1] | Binding of Control Serum Blood-Bank to Looped peptides of the protein M of SARS-CoV Urbani [2] | Binding of Control serum LUMC to looped peptides of the protein M of SARS-CoV Urbani [2]
0.3: Binding of serum 6 to linear peptides of protein M of SARS-CoV Urbani [1] | Binding of serum London to linear peptides of protein M of SARS-CoV Urbani [1] | Rabbit serum looped peptides [3]
0.8: Binding of serum 1a to linear peptides of protein M of SARS-CoV Urbani [1] | Binding of serum 1a to looped/cyclic peptides of protein M of SARS-CoV Urbani [1] | Binding of serum 2 to looped/cyclic peptides of protein M of SARS-CoV Urbani [1] | Binding of serum 37 to linear peptides of protein M of SARS-CoV Urbani [1] | Binding of serum 37 to looped/cyclic peptides of protein M of SARS-CoV Urbani [1] | Binding of serum 62 to looped/cyclic peptides of protein M of SARS-CoV Urbani [1] | Binding of Control serum Blood-bank to linear peptides of the protein M of SARS-CoV Urbani [2]
0.2: Binding of serum London to looped/cyclic peptides of protein M of SARS-CoV Urbani [1] | Binding of serum SARS-green to linear peptides of protein M of SARS-CoV Urbani [1]
0.4: Binding of serum 1b to looped/cyclic peptides of protein M of SARS-CoV Urbani [1] | Binding of serum SARS-green to looped/cyclic peptides of protein M of SARS-CoV Urbani [1] | Rabbit serum linear peptides [3]

RSVSPKLFIRQEEVQ
0.7: Binding of serum 1a to linear peptides of protein X4 of SARS-CoV Urbani [1] | Binding of serum 37 to looped/cyclic peptides of protein X4 of SARS-CoV Urbani [1] | Binding of serum 62 to linear peptides of protein X4 of SARS-CoV Urbani [1] | Binding of Control serum LUMC to looped peptides [2]
0.6: Binding of serum 1a to looped/cyclic peptides of protein X4 of SARS-CoV Urbani [1] | Binding of serum 37 to linear peptides of protein X4 of SARS-CoV Urbani [1] | Binding of serum 62 to looped/cyclic peptides of protein X4 of SARS-CoV Urbani [1] | Binding of serum London to linear peptides of protein X4 of SARS-CoV Urbani [1] | Binding of Control Serum Blood-Bank to Looped peptides [2]
0.3: Binding of serum London to looped/cyclic peptides of protein X4 of SARS-CoV Urbani [1]
0.4: Binding of serum 1b to linear peptides of protein X4 of SARS-CoV Urbani [1] | Binding of serum 2 to linear peptides of protein X4 of SARS-CoV Urbani [1] | Binding of serum SARS-green to looped/cyclic peptides of protein X4 of SARS-CoV Urbani [1] | Binding of Control serum LUMC to linear peptides [2] | Rabbit serum linear peptides [3] | Rabbit serum looped peptides [3]
0.5: Binding of serum 1b to looped/cyclic peptides of protein X4 of SARS-CoV Urbani [1] | Binding of serum 2 to looped/cyclic peptides of protein X4 of SARS-CoV Urbani [1] | Binding of serum 6 to linear peptides of protein X4 of SARS-CoV Urbani [1] | Binding of serum 6 to looped/cyclic peptides of protein X4 of SARS-CoV Urbani [1] | Binding of serum SARS-green to linear peptides of protein X4 of SARS-CoV Urbani [1] | Binding of serum SARS-yellow to looped/cyclic peptides of protein X4 of SARS-CoV Urbani [1] | Binding of Control serum Blood-bank to linear peptides [2]
0.2: Binding of serum SARS-yellow to linear peptides of protein X4 of SARS-CoV Urbani [1]
